Key:
DENV-2 = assay: microbe, parasite or virus in culture; assay type: cell-based, DENV-2 16681; details: Dengue virus, DENV2, HepG2, 24 h, read-out: DENV-2 / HepG2 EC50
in vitro [1] = details: human, hep2 cells
SARS-CoV-2 = assay: microbe, parasite or virus in culture; assay type: cell-based, SARS-CoV-2 strain USA-WA1/2020; details: Severe acute respiratory syndrome coronavirus 2, HeLa-ACE2, 24 h, read-out: SARS-CoV-2 / HeLa-ACE2 EC50
in vitro [2] = details: human, h1 hela cells
HRV 16 = assay: microbe, parasite or virus in culture; assay type: cell-based, Human Rhinovirus 16 strain 11757; details: Rhinovirus A, H1-HeLa, 48 h, read-out: HRV / H1 HeLa A16 EC50
in vitro [3] = details: human, hela-ace2 cells
RSV A2 = assay: microbe, parasite or virus in culture; assay type: cell-based; details: human respiratory syncytial virus, HEp-2, 72 h, read-out: RSV A2 / Hep2 EC50
HRV 14 = assay: microbe, parasite or virus in culture; assay type: cell-based, Human Rhinovirus 14 strain 1059; details: Rhinovirus B, H1-HeLa, 48 h, read-out: HRV / H1 HeLa B 14 EC50
in vitro [4] = details: human, hepg2 cells
HCMV = assay: HCMV/HFF antiviral assay; assay type: cell-based; details: Human betaherpesvirus 5, HFF

SMILES | EC50 (DENV-2) [µM] | CC50 (in vitro [1]) [µM] | EC50 (SARS-CoV-2) [µM] | CC50 (in vitro [2]) [µM] | EC50 (HRV 16) [µM] | CC50 at 24 h (in vitro [3]) [µM] | EC50 (RSV A2) [µM] | EC50 (HRV 14) [µM] | CC50 at 72 h (in vitro [4]) [µM] | EC50 (HCMV) [µM]
C[C@]1(O)[C@H](n2ccc3c(N)ncnc32)O[C@](F)(CO)[C@H]1O [Example 10, (2S,3S,4R,5R)-5-(4-amino-7H-pyrrolo[2,3-d]pyrimidin-7-yl)-2-fluoro-2-(hydroxymethyl)-4-methyltetrahydrofuran-3,4-diol] | > 10 | > 99 | > 10 | > 99 | > 10 | > 99 | > 10 | > 10 | > 99 | 
C#Cc1nc(N)c2ncn([C@@H]3O[C@](F)(CO)[C@@H](O)[C@H]3O)c2n1 [Example 18, (2S,3S,4R,5R)-5-(6-amino-2-ethynyl-9H-purin-9-yl)-2-fluoro-2-(hydroxymethyl)tetrahydrofuran-3,4-diol] | > 10 | > 99 | > 10 | > 99 | > 10 | > 99 | > 10 | > 10 | > 99 | 
OC[C@@]1(F)O[C@@H](n2ccc3cncnc32)[C@H](O)[C@@H]1O [Example 23, (2S,3S,4R,5R)-2-fluoro-2-(hydroxymethyl)-5-(7H-pyrrolo[2,3-d]pyrimidin-7-yl)tetrahydrofuran-3,4-diol] | 0.1 to 1 | 10 to 99 | 1 to 10 | 10 to 99 | 1 to 10 | 1 to 10 | 1 to 10 | 1 to 10 | 1 to 10 | 
N#Cc1cn([C@@H]2O[C@](F)(CO)[C@@H](O)[C@H]2O)c2ncnc(N)c12 [Example 26, 4-amino-7-((2R,3R,4S,5S)-5-fluoro-3,4-dihydroxy-5-(hydroxymethyl)tetrahydrofuran-2-yl)-7H-pyrrolo[2,3-d]pyrimidine-5-carbonitrile] | < 0.1 | < 1 | 0.1 to 1 | 1 to 10 | > 10 | < 1 | < 0.1 | > 10 | < 1 | 
Nc1nc(Cl)c2ccn([C@@H]3O[C@](F)(CO)[C@@H](O)[C@H]3O)c2n1 [Example 27, (2S,3S,4R,5R)-5-(2-amino-4-chloro-7H-pyrrolo[2,3-d]pyrimidin-7-yl)-2-fluoro-2-(hydroxymethyl)tetrahydrofuran-3,4-diol] | > 10 | 10 to 99 | > 10 | 10 to 99 | > 10 | 10 to 99 | > 10 | > 10 | 10 to 99 | 
Cc1nc(Cl)c2ccn([C@@H]3O[C@](F)(CO)[C@@H](O)[C@H]3O)c2n1 [Example 29, (2S,3S,4R,5R)-5-(4-chloro-2-methyl-7H-pyrrolo[2,3-d]pyrimidin-7-yl)-2-fluoro-2-(hydroxymethyl)tetrahydrofuran-3,4-diol] | > 10 |  | > 10 | > 99 | > 10 | > 99 | > 10 | > 10 | > 99 | 
NC(=O)c1cc([C@@H]2O[C@](F)(COC(=O)c3ccccc3)[C@@H](O)[C@H]2O)n2ncnc(N)c12 [Example 34, ((2S,3S,4R,5S)-5-(4-amino-5-carbamoylpyrrolo[2,1-f][1,2,4]triazin-7-yl)-2-fluoro-3,4-dihydroxytetrahydrofuran-2-yl)methyl benzoate] | 1 to 10 | < 1 | > 10 | 1 to 10 | > 10 | 1 to 10 | 0.1 to 1 | > 10 | < 1 | 
COc1ncnc2c1ccn2[C@@H]1O[C@](F)(CO)[C@@H](O)[C@H]1O [Example 41, (2S,3S,4R,5R)-2-fluoro-2-(hydroxymethyl)-5-(4-methoxy-7H-pyrrolo[2,3-d]pyrimidin-7-yl)tetrahydrofuran-3,4-diol] | > 10 | 10 to 99 | > 10 | 10 to 99 | > 10 | 10 to 99 | > 10 | > 10 | 10 to 99 | 
Nc1nc(Cl)nc2c1ncn2[C@@H]1O[C@](F)(CO)[C@@H](O)[C@H]1O [Example 43, (2S,3S,4R,5R)-5-(6-amino-2-chloro-9H-purin-9-yl)-2-fluoro-2-(hydroxymethyl)tetrahydrofuran-3,4-diol] | > 10 | > 99 | > 10 | 10 to 99 | > 10 | > 99 | > 10 | > 10 | 10 to 99 | 
C#C[C@]1(O)[C@H](n2ccc(N)nc2=O)O[C@](F)(CO)[C@H]1O [Example 44, 4-amino-1-((2R,3R,4S,5S)-3-ethynyl-5-fluoro-3,4-dihydroxy-5-(hydroxymethyl)tetrahydrofuran-2-yl)pyrimidin-2(1H)-one] | > 10 | 10 to 99 | > 10 | 10 to 99 | > 10 | > 99 | > 10 | > 10 | > 99 | 
CC(=O)O[C@H]1[C@H](n2ncc(=O)[nH]c2=O)O[C@](F)(COC(=O)c2ccccc2)[C@H]1OC(C)=O [Example 45, (2S,3S,4R,5R)-2-((benzoyloxy)methyl)-5-(3,5-dioxo-4,5-dihydro-1,2,4-triazin-2(3H)-yl)-2-fluorotetrahydrofuran-3,4-diyl diacetate] | > 10 | > 99 | > 10 | > 99 | > 10 | > 99 | > 10 | > 10 | > 99 | 
CC(C)OC(=O)[C@H](C)N[P@@](=O)(OC[C@@]1(F)O[C@@H](n2ccc3c(N)ncnc32)[C@H](O)[C@@H]1O)Oc1ccccc1 [Example 49, isopropyl ((R)-(((2S,3S,4R,5R)-5-(4-amino-7H-pyrrolo[2,3-d]pyrimidin-7-yl)-2-fluoro-3,4-dihydroxytetrahydrofuran-2-yl)methoxy)(phenoxy)phosphoryl)-L-alaninate] | 1 to 10 |  | > 10 | > 99 | > 10 | > 99 |  | 1 to 10 | > 99 | 
N#Cc1ncnc2c1ccn2[C@@H]1O[C@](F)(COC(=O)c2ccccc2)[C@@H](O)[C@H]1OC(=O)c1ccccc1 [Example 50, ((2S,3S,4R,5R)-4-(benzoyloxy)-5-(4-cyano-7H-pyrrolo[2,3-d]pyrimidin-7-yl)-2-fluoro-3-hydroxytetrahydrofuran-2-yl)methyl benzoate] | 0.1 to 1 | 10 to 99 | > 10 | 10 to 99 | > 10 | 10 to 99 | > 10 | > 10 | 1 to 10 | 
CNc1nc(N)nc2c1ccn2[C@@H]1O[C@](F)(COC(=O)c2ccccc2)[C@@H](O)[C@H]1O [Example 56, ((2S,3S,4R,5R)-5-(2-amino-4-(methylamino)-7H-pyrrolo[2,3-d]pyrimidin-7-yl)-2-fluoro-3,4-dihydroxytetrahydrofuran-2-yl)methyl benzoate] | > 10 | > 99 | > 10 | > 99 | > 10 | > 99 | > 10 | > 10 | > 99 | 
CCOc1nc(N)nc2c1ncn2[C@@H]1O[C@](F)(CO)[C@@H](O)[C@@]1(C)Cl [Example 63, (2S,3R,4R,5R)-5-(2-amino-6-ethoxy-9H-purin-9-yl)-4-chloro-2-fluoro-2-(hydroxymethyl)-4-methyltetrahydrofuran-3-ol] | > 10 | > 99 | > 10 | > 99 |  | > 99 | > 10 | > 10 | 10 to 99 | > 10
CCOc1nc(N)nc2c1ncn2[C@@H]1O[C@](F)(CO)[C@@H](O)[C@]1(F)Cl [Example 66, (2S,3R,4S,5R)-5-(2-amino-6-ethoxy-9H-purin-9-yl)-4-chloro-2,4-difluoro-2-(hydroxymethyl)tetrahydrofuran-3-ol] | > 10 | > 99 | > 10 | > 99 |  | > 99 | > 10 | > 10 | > 99 | > 10
CCOc1nc(N)nc2c1ncn2[C@@H]1O[C@](F)(COP(=O)(N[C@@H](C)C(=O)OC(C)C)Oc2ccccc2)[C@@H](O)C1(F)F (stereo partly drawn) [Example 69, isopropyl ((((2S,3R,5R)-5-(2-amino-6-ethoxy-9H-purin-9-yl)-2,4,4-trifluoro-3-hydroxytetrahydrofuran-2-yl)methoxy)(phenoxy)phosphoryl)-L-alaninate] | 1 to 10 | 10 to 99 | > 10 | 10 to 99 |  | 10 to 99 | > 10 | > 10 | 10 to 99 | > 10

Source: patent US20260325561A1, “4'-SUBSTITUTED NUCLEOSIDES AND NUCLEOTIDES AS ANTIVIRAL AGENTS” (THE SCRIPPS RESEARCH INSTITUTE, priority 2023, published 2026)
